# Data: ChEMBL document CHEMBL1201862, “PubChem BioAssay data set” (2004)
#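 Results reflect a 48-hour exposure of cells in 96-well plates to compound at five concentrations. GI50: concentration for 50% inhibition of growth.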 Activity calls are given as the source filed them. Cut-off read from the data, not from the text of the source: active = GI50 up to about 1.1 µM and inactive = higher.
# Experiments:
# Assay in all cases: inhibition of tumour cell growth, NCI panel, 48 h
# 786-0 = system: 786-0
# A498 = system: A498
# A549 = system: A549
# ACHN = system: ACHN
# BT-549 = system: BT-549
# CAKI-1 = system: CAKI-1
# CCRF-CEM = system: CCRF-CEM
# COLO 205 = system: COLO 205
# DU-145 = system: DU-145
# EKVX = system: EKVX
# HCT-116 = system: HCT-116
# HCT-15 = system: HCT-15
# HL-60 = system: HL-60
# HOP-62 = system: HOP-62
# HOP-92 = system: HOP-92
# HT-29 = system: HT-29
# Hs-578T = system: Hs-578T
# IGROV-1 = system: IGROV-1
# K562 = system: K562
# KM12 = system: KM12
# LOX IMVI = system: LOX IMVI
# M14 = system: M14
# MCF7 = system: MCF7
# MDA-MB-231 = system: MDA-MB-231
# MDA-MB-435 = system: MDA-MB-435
# MDA-N = system: MDA-N
# MOLT-4 = system: MOLT-4
# Malme-3M = system: Malme-3M
# NCI-H226 = system: NCI-H226
# NCI-H23 = system: NCI-H23
# NCI-H460 = system: NCI-H460
# NCI-H522 = system: NCI-H522
# NCI/ADR-RES = system: NCI/ADR-RES
# OVCAR-3 = system: OVCAR-3
# OVCAR-4 = system: OVCAR-4
# OVCAR-5 = system: OVCAR-5
# OVCAR-8 = system: OVCAR-8
# PC-3 = system: PC-3
# RPMI-8226 = system: RPMI-8226
# RXF 393 = system: RXF 393
# SF-268 = system: SF-268
# SF-295 = system: SF-295
# SF-539 = system: SF-539
# SK-MEL-28 = system: SK-MEL-28
# SK-MEL-2 = system: SK-MEL-2
# SK-MEL-5 = system: SK-MEL-5
# SK-OV-3 = system: SK-OV-3
# SN12C = system: SN12C
# SNB-19 = system: SNB-19
# SNB-75 = system: SNB-75
# SR = system: SR
# T47D = system: T47D
# TK-10 = system: TK-10
# U-251 = system: U-251
# UACC-257 = system: UACC-257
# UO-31 = system: UO-31
# HCC 2998 = system: HCC 2998
# SW-620 = system: SW-620
# UACC-62 = system: UACC-62
smiles,measurement,setting,value
C(=N\c1nc2cc3sc(/N=C/c4cccs4)nc3cc2s1)/c1cccs1,GI50,786-0,> 100 µM (inactive)
same,GI50,A498,> 100 µM (inactive)
same,GI50,A549,11.5 µM (inactive)
same,GI50,ACHN,> 100 µM (inactive)
same,GI50,BT-549,> 100 µM (inactive)
same,GI50,CAKI-1,> 100 µM (inactive)
same,GI50,CCRF-CEM,11.5 µM (inactive)
same,GI50,COLO 205,3.4 µM (inactive)
same,GI50,DU-145,> 100 µM (inactive)
same,GI50,EKVX,34.4 µM (inactive)
same,GI50,HCT-116,> 100 µM (inactive)
same,GI50,HCT-15,73.5 µM
same,GI50,HL-60,79.6 µM (inactive)
same,GI50,HOP-62,> 100 µM (inactive)
same,GI50,HOP-92,> 100 µM (inactive)
same,GI50,HT-29,44.8 µM (inactive)
same,GI50,Hs-578T,> 100 µM (inactive)
same,GI50,IGROV-1,> 100 µM (inactive)
same,GI50,K562,> 100 µM (inactive)
same,GI50,KM12,> 100 µM (inactive)
same,GI50,LOX IMVI,66.5 µM (inactive)
same,GI50,M14,> 100 µM (inactive)
same,GI50,MCF7,33.4 µM (inactive)
same,GI50,MDA-MB-231,> 100 µM (inactive)
same,GI50,MDA-MB-435,> 100 µM (inactive)
same,GI50,MDA-N,> 100 µM (inactive)
same,GI50,MOLT-4,28.3 µM (inactive)
same,GI50,Malme-3M,> 100 µM (inactive)
same,GI50,NCI-H226,28.4 µM (inactive)
same,GI50,NCI-H23,69.2 µM (inactive)
same,GI50,NCI-H460,5.36 µM (inactive)
same,GI50,NCI-H522,45.2 µM (inactive)
same,GI50,NCI/ADR-RES,> 100 µM (inactive)
same,GI50,OVCAR-3,> 100 µM (inactive)
same,GI50,OVCAR-4,> 100 µM (inactive)
same,GI50,OVCAR-5,> 100 µM (inactive)
same,GI50,OVCAR-8,> 100 µM (inactive)
same,GI50,PC-3,> 100 µM (inactive)
same,GI50,RPMI-8226,> 100 µM (inactive)
same,GI50,RXF 393,> 100 µM (inactive)
same,GI50,SF-268,> 100 µM (inactive)
same,GI50,SF-295,> 100 µM (inactive)
same,GI50,SF-539,> 100 µM (inactive)
same,GI50,SK-MEL-28,> 100 µM (inactive)
same,GI50,SK-MEL-2,> 100 µM (inactive)
same,GI50,SK-MEL-5,33 µM (inactive)
same,GI50,SK-OV-3,> 100 µM (inactive)
same,GI50,SN12C,72.9 µM (inactive)
same,GI50,SNB-19,> 100 µM (inactive)
same,GI50,SNB-75,> 100 µM (inactive)
same,GI50,SR,26.1 µM (inactive)
same,GI50,T47D,> 100 µM (inactive)
same,GI50,TK-10,26.2 µM (inactive)
same,GI50,U-251,> 100 µM (inactive)
same,GI50,UACC-257,70.1 µM (inactive)
same,GI50,UO-31,> 100 µM (inactive)
Cc1nn(C(=O)c2ccncc2)c2c1C(c1cccc([N+](=O)[O-])c1)SC(=N)N2 (stereo not drawn),GI50,786-0,> 10 µM (inactive)
same,GI50,A549,> 10 µM (inactive)
same,GI50,ACHN,> 10 µM (inactive)
same,GI50,BT-549,> 10 µM (inactive)
same,GI50,CAKI-1,> 10 µM (inactive)
same,GI50,CCRF-CEM,> 10 µM (inactive)
same,GI50,COLO 205,> 10 µM (inactive)
same,GI50,DU-145,> 10 µM (inactive)
same,GI50,EKVX,> 10 µM (inactive)
same,GI50,HCC 2998,> 10 µM (inactive)
same,GI50,HCT-116,> 10 µM (inactive)
same,GI50,HCT-15,> 10 µM
same,GI50,HL-60,> 10 µM (inactive)
same,GI50,HOP-62,> 10 µM (inactive)
same,GI50,HOP-92,> 10 µM (inactive)
same,GI50,HT-29,> 10 µM (inactive)
same,GI50,Hs-578T,> 10 µM (inactive)
same,GI50,IGROV-1,> 10 µM (inactive)
same,GI50,K562,> 10 µM (inactive)
same,GI50,KM12,> 10 µM (inactive)
same,GI50,LOX IMVI,> 10 µM (inactive)
same,GI50,M14,> 10 µM (inactive)
same,GI50,MCF7,> 10 µM (inactive)
same,GI50,MDA-MB-231,> 10 µM (inactive)
same,GI50,MDA-MB-435,> 10 µM (inactive)
same,GI50,MDA-N,> 10 µM (inactive)
same,GI50,MOLT-4,> 10 µM (inactive)
same,GI50,Malme-3M,> 10 µM (inactive)
same,GI50,NCI-H226,> 10 µM (inactive)
same,GI50,NCI-H23,> 10 µM (inactive)
same,GI50,NCI-H460,> 10 µM (inactive)
same,GI50,NCI-H522,> 10 µM (inactive)
same,GI50,NCI/ADR-RES,> 10 µM (inactive)
same,GI50,OVCAR-3,> 10 µM (inactive)
same,GI50,OVCAR-4,> 10 µM (inactive)
same,GI50,OVCAR-5,> 10 µM (inactive)
same,GI50,OVCAR-8,> 10 µM (inactive)
same,GI50,PC-3,> 10 µM (inactive)
same,GI50,RPMI-8226,> 10 µM (inactive)
same,GI50,RXF 393,> 10 µM (inactive)
same,GI50,SF-268,> 10 µM (inactive)
same,GI50,SF-295,> 10 µM (inactive)
same,GI50,SF-539,> 10 µM (inactive)
same,GI50,SK-MEL-28,> 10 µM (inactive)
same,GI50,SK-MEL-2,> 10 µM (inactive)
same,GI50,SK-MEL-5,> 10 µM (inactive)
same,GI50,SK-OV-3,> 10 µM (inactive)
same,GI50,SN12C,> 10 µM (inactive)
same,GI50,SNB-19,> 10 µM (inactive)
same,GI50,SNB-75,> 10 µM (inactive)
same,GI50,SR,> 10 µM (inactive)
same,GI50,SW-620,> 10 µM (inactive)
same,GI50,T47D,> 10 µM (inactive)
same,GI50,TK-10,> 10 µM (inactive)
same,GI50,U-251,> 10 µM (inactive)
same,GI50,UACC-257,> 10 µM (inactive)
same,GI50,UACC-62,> 10 µM (inactive)
